These results are taken from patent EP1806135A2, “The use of a protein tyrosine inhibitor such as genistein in the treatment of diabetic retinopathy or ocular inflammation” (THE JOHNS HOPKINS UNIVERSITY SCHOOL OF MEDICINE, priority 1998, dated 1999).

The test system of one series is pigmented rabbits. Briefly: Ocular inflammation (vitreous cavity haze) after intravitreal injection of homologous dermal fibroblasts. The format is in vivo, rabbit. The settings on record: graded 3 days after fibroblast injection. The procedure:
The principles of laboratory animal care (NIH publication No. 86-23, revised 1985) were followed. For all studies, pigmented rabbits, weighing 2.5-3 kg were used. The animals were anesthetized with a cocktail of ketamine (25 mg/kg) and xylazine (5 mg/kg), and the pupils were dilated with topical 1 % tropicamide and 0.5% phenylephrine.
Vitreous liquefaction was caused by injection of SF6 gas. After an anterior chamber paracentesis (0.1 ml), pure SF6 gas (0.3 ml) was injected. The 30-gauge needle was inserted inferiorly in order to maximize the vitreous liquefaction.
Rabbit dermal fibroblasts were obtained from rabbit rump biopsy material prepared under sterile conditions: Primary cultures were incubated in Dulbecco's modified Eagle's medium (DMEM) with 30% calf serum, antibiotics (penicillin G sodium, streptomycin sulfate) and antimycotics (amphotericin B) under a humid atmosphere of 5% carbon dioxide in air for 72 hours. The medium was then changed to DMEM with 10% calf serum, antibiotics and antimycotics as above. The cultures were passaged weekly. Cells were harvested by incubating them with 3.5 ml of 0.04% trypsin for 4 minutes and collecting the cells in stop media. The dispersed cells were centrifuged at 1,000 rpm for 5 minutes and resuspended in 1 ml of phosphate-buffered saline. After cell counts of a 0.05 ml aliquot, the suspension was diluted to achieve a final concentration of 2.5x10^4 cells in a 0.1 ml of phosphate-buffered saline.
Fourteen days after the injection of SF6 gas, a 30-gauge needle was inserted 3 mm posterior to the corneoscleral limbus in the superonasal quadrant under microscopic control. With the bevel of the needle directed upward, 2.5x10^4 homologous rabbit dermal fibroblasts suspended in 0.1 ml sterile phosphate-buffered saline were injected just in front of the optic nerve head. This was performed in both eyes of all rabbits. The rabbits were immediately placed on their backs for 1 hour to allow the cells to settle over the vitreous surface. […]

The next series concerns retina. Nature of the series: Retinal toxicity by electroretinography after oral administration. The format is in vivo. The settings on record: orally administered, 75 mg/kg/day to 300 mg/kg/day over a period of six months, Zucker diabetic fatty rats. The source says:
(§1) An advantage of genistein is that it is very safe and efficacious. […] Also, no effect of orally administered genistein was found with respect to the weight of the ovaries and the uterus in female rats.

Series [1] can be described thus: Food intake, body weight and organ weights after oral administration. The format is in vivo, rats.
Text: as §1

For another series, the system named is 67 kDa band. Briefly: Total protein profile of retinal homogenate (gel electrophoresis, Coomassie brilliant blue staining). The settings on record: 50 mg/kg intraperitoneally, repeated after two hours; retina taken 24 hours later; Zucker diabetic fatty rat. The format is in vivo. The source says:
(§2) Six pair of litter mates of Zucker rats, i.e., six male retired breeder Zucker diabetic fatty (ZDF, fa/fa) rats and six male retired breeder lean Zucker (fa/+) rats, were obtained (Genetic Models, Inc., Indianapolis, IN). The Zucker diabetic fatty rat develops a microvascular retinopathy involving basement membrane thickening of retinal capillaries, pericyte loss, capillary hypercellularity, and increased endothelial intercellular junctions (Danis et al., Invest. Ophthalmol. Vis. Sci. 34:2367-2371 (1993); and Dosso et al., Diabetologia 33:137-144 (1990)). The microvascular changes known to occur in the Zucker diabetic fatty rats are associated with the elevated levels of VEGF and platelet-derived growth factor (PDGF) and with activation of PTK pathways, especially pathways that include phosphatidylinositol-3 kinase (PI3-K) and mitogen-activated protein kinase (MAPK). Each pair of litter mates was between six and seven months of age. Rats were fed with a diet of Purina 5008 rat chow. […] The average blood glucose value was more than 500 mg/dl for the Zucker diabetic fatty rats and 120 mg/dl for the control lean rats as measured by glucose oxidase assay at the time of death (Danis et al. (1993), supra). […]
Protein concentrations were measured by the Pierce BCA method. […]

Series [2] relates to tyrosine phosphorylated proteins. Briefly: Western immunoblot analysis of tyrosine phosphorylated proteins in the retina. The format is in vivo, Zucker diabetic fatty rat. As to conditions: 50 mg/kg intraperitoneally, repeated after two hours; diabetic rats compared with the non-treated group. The source says:
(§3) Six pair of litter mates of Zucker rats, i.e., six male retired breeder Zucker diabetic fatty (ZDF, fa/fa) rats and six male retired breeder lean Zucker (fa/+) rats, were obtained (Genetic Models, Inc., Indianapolis, IN). The Zucker diabetic fatty rat develops a microvascular retinopathy involving basement membrane thickening of retinal capillaries, pericyte loss, capillary hypercellularity, and increased endothelial intercellular junctions (Danis et al., Invest. Ophthalmol. Vis. Sci. 34:2367-2371 (1993); and Dosso et al., Diabetologia 33:137-144 (1990)). The microvascular changes known to occur in the Zucker diabetic fatty rats are associated with the elevated levels of VEGF and platelet-derived growth factor (PDGF) and with activation of PTK pathways, especially pathways that include phosphatidylinositol-3 kinase (PI3-K) and mitogen-activated protein kinase (MAPK). Each pair of litter mates was between six and seven months of age. Rats were fed with a diet of Purina 5008 rat chow. The animals were treated in accordance with The Association for Research in Vision and Ophthalmology (ARVO) Statement for the Use of Animals in Ophthalmic and Vision Research. The average blood glucose value was more than 500 mg/dl for the Zucker diabetic fatty rats and 120 mg/dl for the control lean rats as measured by glucose oxidase assay at the time of death (Danis et al. (1993), supra). […]
For orientation: Immunoblotting shows a protein as a band on a membrane.

Another series deals with PI3-K. Nature of the series: Western immunoblot analysis of immunoprecipitated tyrosine phosphorylated proteins in the retina: PI3-K. It is filed as in vivo, Zucker diabetic fatty rat. The settings on record: 50 mg/kg intraperitoneally, repeated after two hours; especially in the diabetic rat.
Text: as §2, with “(MAPK).” for “(MAPK). Each pair of litter mates was between six and seven months of age. Rats were fed with a diet of Purina 5008 rat chow.”
(§4) The retinal tissue samples were added to immunoprecipitation buffer (1 % Triton X-100, 150 mM NaCl, 10 mM Tris, pH 7.4, 1 mM EGTA, 0.2 mM sodium vanadate, 0.2 mM PMSF, 0.5 % NP-40) and homogenized. […] Protein concentrations were measured by the Pierce BCA method. […]

In a further series the test system is MAPK. Nature of the series: Western immunoblot analysis of immunoprecipitated tyrosine phosphorylated proteins in the retina: MAPK. It is filed as in vivo, Zucker diabetic fatty rat. The settings on record: 50 mg/kg intraperitoneally, repeated after two hours; treated group compared with the non-treated animals group.
Text: as §2, with “(MAPK).” for “(MAPK). Each pair of litter mates was between six and seven months of age. Rats were fed with a diet of Purina 5008 rat chow.”
as §4

In series [3] the test system is PCNA. Nature of the series: Western immunoblot analysis of PCNA in the retina. The settings on record: 50 mg/kg intraperitoneally, repeated after two hours; Zucker diabetic fatty rat retina; not down to the lean control level. The format is in vivo.
Text: as §3

Series [4] relates to PCNA. Nature of the series: Immunohistochemical analysis of PCNA in the retina. The format is in vivo. As to conditions: genistein treated diabetic rats compared with untreated Zucker diabetic fatty rats. The procedure: Two pairs of rats were used for immunohistochemical analysis of PCNA in the retina. Under deep anesthesia with ketamine and xylazine, the four rats were perfused transcardially with 0.1 M phosphate-buffered saline (PBS; pH 7.4) containing 1 mM orthovanadate, followed by perfusion of 2 % paraformaldehyde in 0.1 M PBS for fixation. The eyes were then removed and immersed in the same fixative for 30 min. The anterior segments were removed and the posterior segments were transferred into a graded sucrose solution from 5 % to 15 % for 2 hrs and incubated in 20 % sucrose solution overnight at 4°C. After cryoprotection, the eyes were molded in O.C.T. compound (Miles, Inc., Elkhart, IN) and frozen in isopentane with dry ice. The posterior segments were cut into 8 µm sections.
The sections were treated with 3 % peroxide to block intrinsic peroxidase, and incubated with 2 % normal horse serum for 20 min. After rinsing in 0.1 M PBS three times, the sections were incubated overnight at 4°C with anti-PCNA antibody (1:1,000 dilution). After the incubation, the sections were rinsed in 0.1 M PBS, and incubated with biotinylated anti-mouse IgG antibody (Vector Laboratories, Inc., Burlingame, CA; 1:500 dilution) for 30 min at room temperature, and then incubated with […] streptavidin (Kirkegaad & Perry Laboratories, Inc., Gaithersburg, MD; 1:500 dilution). […]

[5] abbreviates: oral administration, male and female rats.
[6] abbreviates: orally administered, female rats.

Consider `COC1C=CC=C(C)C(=O)NC2=CC(=O)C=C(C2=O)C(OC)C(C)CC(OC)C(OC)C(C)C=C(C)C1OC(N)=O` (centres unmarked) [HA, Herbimycin A], for which the “eyes with severe inflammation (vitreous haze)” value with pigmented rabbits (group 1: 23 µg intravitreally 1 hour (prophylactic) after fibroblast injection, control eyes 47.1%, p<0.01) was 0%; in the series on pigmented rabbits (group 2: 23 µg intravitreally 2 days (therapeutic) after fibroblast injection, control eyes 50%, p>0.05), 10%; in the series on pigmented rabbits (group 3: 11.5 µg intravitreally at 1 hour and again 2 days after fibroblast injection, control eyes 77.8%, p<0.05) it was 22.2%.
Turning to `O=c1c(-c2ccc(O)cc2)coc2cc(O)cc(O)c12` [genistein, 5,7-dihydroxy-3-(4-hydroxyphenyl)-4H-1-benzopyran-4-one], the “toxicity to the retina as measured by electroretinography” value with retina is reported as “nontoxic to the retina”. In [1] (setting [5]), the body weight result is “no effect” and the food intake entry was “no effect”. Further, in series [1] (setting [6]), the “weight of the ovaries” value is “no effect” and the “weight of the uterus” value is given as “no effect”. In addition, the “amount of staining of the 67 kDa band in total protein profiles” value in the series on 67 kDa band was “reduced”. In addition, the “staining of tyrosine phosphorylated proteins at 50, 66, 97 and 116 kDa” value in series [2] is listed as “decreased staining at each molecular weight”. In addition, the “tyrosine phosphorylated PI3-K stained band at 85 kDa” value with PI3-K is listed as “reduced”. In addition, in the series on MAPK, the “level of tyrosine phosphorylated MAPK at 44 kDa” value is “decreased”. Also, the “level of PCNA at 36 kDa” value in the series with PCNA [3] is “reduced this increase”. Moreover, the “PCNA immunopositive cells in the retina” value with PCNA [4] is recorded as “fewer immunopositive cells were detected”.
